Data published in patent US20020068038A1, “Foaming tablet for cleaning the oral cavity and preparation method thereof” (priority 1998, published 2002).
Read-outs that look alike come from different tables or passages of the source.

Tests used:
[1] = tested on: Acetinobacillus
[2] = tested on: Lactobacillus casei
[3] = tested on: Bacterioides gingivalis
[4] = tested on: Streptococcus sanguis
[5] = tested on: Fusobacterium nucleanum
[6] = tested on: Streptococcuis mutans
[7] = tested on: Capnocytophaga ochraceus
[8] = tested on: Eikenella corrdens
[9] = Acetinobacillus, MH medium, 96 hours anaerobic cultivation at 37° C., less than 10 colonies on LRBB agar
[10] = Lactobacillus casei, MH medium, 96 hours anaerobic cultivation at 37° C., less than 10 colonies on LRBB agar
[11] = Bacterioides gingivalis, MH medium, 96 hours anaerobic cultivation at 37° C., less than 10 colonies on LRBB agar
[12] = Streptococcus sanguis, MH medium, 96 hours anaerobic cultivation at 37° C., less than 10 colonies on LRBB agar
[13] = Fusobacterium nucleanum, MH medium, 96 hours anaerobic cultivation at 37° C., less than 10 colonies on LRBB agar
[14] = Streptococcuis mutans, MH medium, 96 hours anaerobic cultivation at 37° C., less than 10 colonies on LRBB agar
[15] = Capnocytophaga ochraceus, MH medium, 96 hours anaerobic cultivation at 37° C., less than 10 colonies on LRBB agar

SMILES | disinfection concentration [1, 9] | disinfection concentration [2, 10] | disinfection concentration [3, 11] | disinfection concentration [4, 12] | disinfection concentration [5, 13] | disinfection concentration [6, 14] | disinfection concentration [7, 15] | disinfection concentration ([8]; Eikenella corrdens, MH medium, 96 hours anaerobic cultivation at 37° C., less than 10 colonies on LRBB agar) | disinfection concentration [1] | disinfection concentration [2] | disinfection concentration [3] | disinfection concentration [4] | disinfection concentration [5] | disinfection concentration [6] | disinfection concentration [7] | disinfection concentration [8]
O=S(=O)([O-])[O-].[Mg+2] [MgSO4, magnesium sulfate] | 300 | 1,500 | 600 | 1,600 | 300 | 1,700 | 400 |  |  |  |  |  |  |  |  | 
[Cl-].[Na+] [NaCl, sodium chloride] | 250 | 1,200 | 650 | 2,200 | 400 | 1,300 | 350 | 400 |  |  |  |  |  |  |  | 
O=C([O-])O.[Na+] [NaHCO3, sodium bicarbonate] |  |  |  |  |  |  |  |  | 250 | 500 | 500 | 500 | 450 | 450 | 200 | 
O=C([O-])O.[K+] [KHCO3, potassium bicarbonate] |  |  |  |  |  |  |  |  | 300 | 600 | 100 | 300 |  | 600 | 150 | 300
